# Earlier results, collected in patent publication US6423864B1, “Purification of N-[N-(3,3-dimethylbutyl)-L-α-aspartyl]-L-phenylalanine 1-methyl ester via crystallization” (The NutraSweet Company, priority 1998, dated 2002).
# Conditions: relative to sucrose; background statement
smiles,measurement,value
"COC(=O)[C@H](Cc1ccccc1)NC(=O)[C@H](CC(=O)O)NCCC(C)(C)C [neotame, N-[N-(3,3-dimethylbutyl)-L-α-aspartyl]-L-phenylalanine 1-methyl ester]",sweetness potency (sweeter than sucrose),about 8000 ×
